Experimental data as given in patent US6677310B1, “Ring-expanded nucleosides and nucleotides” (Nabi, priority 1999, dated 2004).

Columns and labels:
Format in all cases: cell-based, human
SN12C = experiment: SRB anti-cancer assay, Renal Cancer; details: 48 h
MDA-MB-435 = experiment: SRB anti-cancer assay, Breast Cancer; details: MDA-MB-435 (Breast Cancer), 48 h
SR = experiment: SRB anti-cancer assay, Leukemia; details: 48 h
SK-OV-3 = experiment: SRB anti-cancer assay, Ovarian Cancer; details: SK-OV-3 (Ovarian Cancer), 48 h
786-0 = experiment: SRB anti-cancer assay, Renal Cancer; details: 786-0 (Renal Cancer), 48 h
CAKI-1 = experiment: SRB anti-cancer assay, Renal Cancer; details: CAKI-1 (Renal Cancer), 48 h
SNB-75 = experiment: SRB anti-cancer assay, CNS Cancer; details: SNB-75 (CNS Cancer), 48 h
UACC-257 = experiment: SRB anti-cancer assay, Melanoma; details: UACC-257 (Melanoma), 48 h
KM12 = experiment: SRB anti-cancer assay, Colon Cancer; details: 48 h
CCRF-CEM = experiment: SRB anti-cancer assay, Leukemia; details: 48 h
UO-31 = experiment: SRB anti-cancer assay, Renal Cancer; details: UO-31 (Renal Cancer), 48 h
M14 = experiment: SRB anti-cancer assay, Melanoma; details: 48 h
EKVX = EKVX (Non-Small Cell Lung Cancer), 48 h
RPMI-8226 = experiment: SRB anti-cancer assay, Leukemia; details: RPMI-8226 (Leukemia), 48 h
SW-620 = experiment: SRB anti-cancer assay, Colon Cancer; details: SW-620 (Colon Cancer), 48 h
OVCAR-4 = experiment: SRB anti-cancer assay, Ovarian Cancer; details: OVCAR-4 (Ovarian Cancer), 48 h
NCI-H23 = NCI-H23 (Non-Small Cell Lung Cancer), 48 h
SF-295 = experiment: SRB anti-cancer assay, CNS Cancer; details: SF-295 (CNS Cancer), 48 h
SNB-19 = experiment: SRB anti-cancer assay, CNS Cancer; details: SNB-19 (CNS Cancer), 48 h
HOP-62 = HOP-62 (Non-Small Cell Lung Cancer), 48 h
DU-145 = experiment: SRB anti-cancer assay, Prostate Cancer; details: DU-145 (Prostate Cancer), 48 h
HCC-2998 = experiment: SRB anti-cancer assay, Colon Cancer; details: HCC-2998 (Colon Cancer), 48 h
OVCAR-8 = experiment: SRB anti-cancer assay, Ovarian Cancer; details: OVCAR-8 (Ovarian Cancer), 48 h
T-47D = experiment: SRB anti-cancer assay, Breast Cancer; details: T-47D (Breast Cancer), 48 h
MDA-N = experiment: SRB anti-cancer assay, Breast Cancer; details: 48 h
OVCAR-5 = experiment: SRB anti-cancer assay, Ovarian Cancer; details: OVCAR-5 (Ovarian Cancer), 48 h
ACHN = experiment: SRB anti-cancer assay, Renal Cancer; details: 48 h
NCI/ADR-RES = experiment: SRB anti-cancer assay, Breast Cancer; details: 48 h
UACC-62 = experiment: SRB anti-cancer assay, Melanoma; details: UACC-62 (Melanoma), 48 h
A549/ATCC = A549/ATCC (Non-Small Cell Lung Cancer), 48 h
[1] = read-out: LC50 (the source's name)

N=c1[nH]c(=O)c2ncn([C@@H]3O[C@H](CO)[C@@H](O)[C@H]3O)c2c(=O)[nH]1 [Compound 14-1, 6-Imino-6H-1-β-D-ribofuranosyl-4,5,7,8-tetrahydroimidazo[4,5-e][1,3]diazepine-4,8-dione]
> 100 µM: GI50 (SN12C) | CC50 (SN12C; [1]) | GI50 (MDA-MB-435) | CC50 (MDA-MB-435; [1]) | GI50 (SR) | LC50 (concentration killing 50% of cells) (SR) | GI50 (SK-OV-3) | CC50 (SK-OV-3; [1]) | GI50 (786-0) | CC50 (786-0; [1]) | GI50 (CAKI-1) | CC50 (CAKI-1; [1]) | LC50 (concentration killing 50% of cells) (SNB-75) | GI50 (UACC-257) | CC50 (UACC-257; [1]) | GI50 (KM12) | LC50 (KM12) | GI50 (CCRF-CEM) | CC50 (CCRF-CEM; [1]) | GI50 (UO-31) | CC50 (UO-31; [1]) | GI50 (M14) | CC50 (M14; [1]) | GI50 (EKVX) | CC50 (EKVX; [1]) | GI50 (RPMI-8226) | CC50 (RPMI-8226; [1]) | GI50 (SW-620) | CC50 (SW-620; [1]) | GI50 (OVCAR-4) | CC50 (OVCAR-4; [1]) | GI50 (NCI-H23) | CC50 (NCI-H23; [1]) | GI50 (SF-295) | CC50 (SF-295; [1]) | GI50 (SNB-19) | CC50 (SNB-19; [1]) | GI50 (HOP-62) | LC50 (concentration for 50% net cell kill) (HOP-62) | GI50 (DU-145) | CC50 (DU-145; [1]) | GI50 (HCC-2998) | CC50 (HCC-2998; [1]) | GI50 (OVCAR-8) | LC50 (50% lethal concentration) (OVCAR-8) | GI50 (T-47D) | CC50 (T-47D; [1]) | GI50 (MDA-N) | CC50 (MDA-N; [1]) | GI50 (OVCAR-5) | CC50 (OVCAR-5; [1]) | GI50 (ACHN) | CC50 (ACHN; [1]) | GI50 (NCI/ADR-RES) | CC50 (NCI/ADR-RES; [1]) | GI50 (UACC-62) | CC50 (UACC-62; [1]) | GI50 (A549/ATCC) | CC50 (A549/ATCC; [1])
>100 µM: TGI (SN12C) | TGI (MDA-MB-435) | TGI (SR) | TGI (SK-OV-3) | TGI (786-0) | TGI (CAKI-1) | TGI (SNB-75) | TGI (UACC-257) | TGI (KM12) | TGI (CCRF-CEM) | TGI (UO-31) | TGI (M14) | TGI (EKVX) | TGI (RPMI-8226) | TGI (SW-620) | TGI (OVCAR-4) | TGI (NCI-H23) | TGI (SF-295) | TGI (SNB-19) | TGI (HOP-62) | TGI (DU-145) | TGI (HCC-2998) | TGI (OVCAR-8) | TGI (T-47D) | TGI (MDA-N) | TGI (OVCAR-5) | TGI (ACHN) | TGI (NCI/ADR-RES) | TGI (UACC-62) | TGI (A549/ATCC)
